Results taken from US9573911B2, “Diphosphate mimetics and uses thereof” (President and Fellows of Harvard College, priority 2011, dated 2017).

Columns and labels:
Test in all cases: Further kinase screen, Invitrogen Z'-LYTE
Assay type in all cases: biochemical
Settings in all cases: Table 3
RPS6KB1 (p70S6K) = target: T1, RPS6KB1 (p70S6K) (Homo sapiens, UniProt P23443)
T1 construct: purchased Invitrogen
Experimental: (§1) Kinase profiling was conducted using Invitrogen Z'-LYTE screening protocol and assay conditions found at www.invitrogen.com. Compound (2) inhibited PLK1 completely at 5 μM.
(§2) A further kinase screen was performed on Compounds (2), (4A), and (4B) using the assay described above.

SRPK1 = target: T2, SRPK1 (Homo sapiens, UniProt Q96SB4)
T2 construct: purchased Invitrogen
T2 sequence (Q96SB4 whole entry): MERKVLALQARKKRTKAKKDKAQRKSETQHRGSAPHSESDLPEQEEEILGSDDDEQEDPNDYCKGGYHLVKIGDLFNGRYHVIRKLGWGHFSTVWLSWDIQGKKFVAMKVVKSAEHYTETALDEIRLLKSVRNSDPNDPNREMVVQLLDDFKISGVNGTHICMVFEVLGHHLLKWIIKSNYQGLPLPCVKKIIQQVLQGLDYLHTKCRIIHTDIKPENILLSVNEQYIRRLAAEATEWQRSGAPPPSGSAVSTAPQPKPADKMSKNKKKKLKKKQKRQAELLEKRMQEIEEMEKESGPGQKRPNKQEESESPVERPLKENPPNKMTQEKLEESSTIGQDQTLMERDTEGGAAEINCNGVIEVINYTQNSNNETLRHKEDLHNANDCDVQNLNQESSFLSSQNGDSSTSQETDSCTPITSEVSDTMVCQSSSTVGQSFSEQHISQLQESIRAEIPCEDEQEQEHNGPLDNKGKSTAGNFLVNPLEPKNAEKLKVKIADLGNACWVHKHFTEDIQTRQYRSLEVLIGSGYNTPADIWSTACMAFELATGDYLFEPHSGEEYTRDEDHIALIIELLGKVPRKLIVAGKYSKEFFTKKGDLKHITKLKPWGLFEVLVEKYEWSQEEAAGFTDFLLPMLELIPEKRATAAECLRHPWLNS
Experimental: as §1, §2

CSNK1G3 (CK1 gamma 3) = target: T3, CSNK1G3 (CK1 gamma 3) (Homo sapiens, UniProt Q9Y6M4)
T3 construct: purchased Invitrogen
T3 sequence (Q9Y6M4 whole entry): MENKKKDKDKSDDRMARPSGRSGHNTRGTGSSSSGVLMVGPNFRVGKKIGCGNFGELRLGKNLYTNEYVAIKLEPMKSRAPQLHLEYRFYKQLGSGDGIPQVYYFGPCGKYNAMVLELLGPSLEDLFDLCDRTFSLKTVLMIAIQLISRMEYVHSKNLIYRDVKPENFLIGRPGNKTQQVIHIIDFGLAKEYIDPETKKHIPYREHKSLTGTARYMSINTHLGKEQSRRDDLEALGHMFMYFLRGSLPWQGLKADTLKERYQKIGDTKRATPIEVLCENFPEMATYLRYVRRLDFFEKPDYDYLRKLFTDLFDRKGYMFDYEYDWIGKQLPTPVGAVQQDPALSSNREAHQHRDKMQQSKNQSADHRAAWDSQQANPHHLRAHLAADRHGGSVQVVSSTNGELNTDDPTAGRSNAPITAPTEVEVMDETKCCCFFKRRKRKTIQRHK
Experimental: as §1, §2

TYK2 = target: T4, TYK2 (Homo sapiens, UniProt P29597)
T4 construct: purchased Invitrogen
T4 sequence (P29597 whole entry): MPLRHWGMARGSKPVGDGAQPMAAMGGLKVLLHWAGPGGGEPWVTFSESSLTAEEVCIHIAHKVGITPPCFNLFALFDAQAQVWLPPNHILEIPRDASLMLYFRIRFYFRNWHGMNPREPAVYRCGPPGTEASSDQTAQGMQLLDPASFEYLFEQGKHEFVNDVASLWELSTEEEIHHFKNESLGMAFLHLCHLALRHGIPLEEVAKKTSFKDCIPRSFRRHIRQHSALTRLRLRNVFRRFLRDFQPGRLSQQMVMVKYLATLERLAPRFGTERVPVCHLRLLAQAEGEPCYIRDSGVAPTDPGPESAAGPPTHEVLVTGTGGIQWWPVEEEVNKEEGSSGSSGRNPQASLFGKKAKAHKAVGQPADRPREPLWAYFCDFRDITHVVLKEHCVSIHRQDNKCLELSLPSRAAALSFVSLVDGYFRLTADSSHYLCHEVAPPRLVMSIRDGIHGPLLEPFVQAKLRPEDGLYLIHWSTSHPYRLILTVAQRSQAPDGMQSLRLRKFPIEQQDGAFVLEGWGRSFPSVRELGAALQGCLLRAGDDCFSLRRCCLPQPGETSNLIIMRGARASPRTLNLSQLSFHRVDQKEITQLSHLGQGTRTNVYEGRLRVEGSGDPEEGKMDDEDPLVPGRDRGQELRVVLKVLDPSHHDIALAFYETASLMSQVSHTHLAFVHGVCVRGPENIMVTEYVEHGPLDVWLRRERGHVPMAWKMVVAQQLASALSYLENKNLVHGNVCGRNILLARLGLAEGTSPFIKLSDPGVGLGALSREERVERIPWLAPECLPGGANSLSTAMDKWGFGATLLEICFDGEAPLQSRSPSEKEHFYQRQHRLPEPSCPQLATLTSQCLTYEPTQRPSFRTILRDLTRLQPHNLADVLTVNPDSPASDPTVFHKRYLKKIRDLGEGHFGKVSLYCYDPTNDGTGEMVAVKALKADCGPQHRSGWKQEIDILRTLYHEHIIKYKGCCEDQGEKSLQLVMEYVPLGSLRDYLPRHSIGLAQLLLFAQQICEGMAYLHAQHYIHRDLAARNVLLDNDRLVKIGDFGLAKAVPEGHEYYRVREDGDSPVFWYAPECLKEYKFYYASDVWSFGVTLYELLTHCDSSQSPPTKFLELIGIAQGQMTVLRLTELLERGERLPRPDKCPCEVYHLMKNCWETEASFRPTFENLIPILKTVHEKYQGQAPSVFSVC
Experimental: as §1, §2

MAPKAPK2 = target: T5, MAPKAPK2 (Homo sapiens, UniProt P49137)
T5 construct: purchased Invitrogen
T5 sequence (P49137 whole entry): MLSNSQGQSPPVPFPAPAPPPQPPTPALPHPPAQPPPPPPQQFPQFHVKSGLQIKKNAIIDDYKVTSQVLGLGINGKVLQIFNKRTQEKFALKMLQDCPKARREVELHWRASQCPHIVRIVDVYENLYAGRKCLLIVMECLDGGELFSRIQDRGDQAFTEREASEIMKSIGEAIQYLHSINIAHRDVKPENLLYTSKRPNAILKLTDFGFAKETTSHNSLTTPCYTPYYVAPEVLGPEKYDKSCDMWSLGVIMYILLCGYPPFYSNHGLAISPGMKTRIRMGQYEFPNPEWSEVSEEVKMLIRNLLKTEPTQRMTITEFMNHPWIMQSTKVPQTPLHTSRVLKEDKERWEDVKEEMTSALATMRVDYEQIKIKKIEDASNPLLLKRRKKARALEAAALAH
Experimental: as §1, §2

GSK3B (GSK3 beta) = target: T6, GSK3B (GSK3 beta) (Homo sapiens, UniProt P49841)
T6 construct: purchased Invitrogen
Experimental: as §1, §2

CAMK4 (CaMKIV) = target: T7, CAMK4 (CaMKIV) (Homo sapiens, UniProt Q16566)
T7 construct: purchased Invitrogen
Experimental: as §1, §2

CAMK2A (CaMKII alpha) = target: T8, CAMK2A (CaMKII alpha) (Homo sapiens, UniProt Q9UQM7)
T8 construct: purchased Invitrogen
Experimental: as §1, §2

SYK = target: T9, SYK (Homo sapiens, UniProt P43405)
T9 construct: purchased Invitrogen
Experimental: as §1, §2

RPS6KA5 (MSK1) = target: T10, RPS6KA5 (MSK1) (Homo sapiens, UniProt O75582)
T10 construct: purchased Invitrogen
T10 sequence (O75582 whole entry): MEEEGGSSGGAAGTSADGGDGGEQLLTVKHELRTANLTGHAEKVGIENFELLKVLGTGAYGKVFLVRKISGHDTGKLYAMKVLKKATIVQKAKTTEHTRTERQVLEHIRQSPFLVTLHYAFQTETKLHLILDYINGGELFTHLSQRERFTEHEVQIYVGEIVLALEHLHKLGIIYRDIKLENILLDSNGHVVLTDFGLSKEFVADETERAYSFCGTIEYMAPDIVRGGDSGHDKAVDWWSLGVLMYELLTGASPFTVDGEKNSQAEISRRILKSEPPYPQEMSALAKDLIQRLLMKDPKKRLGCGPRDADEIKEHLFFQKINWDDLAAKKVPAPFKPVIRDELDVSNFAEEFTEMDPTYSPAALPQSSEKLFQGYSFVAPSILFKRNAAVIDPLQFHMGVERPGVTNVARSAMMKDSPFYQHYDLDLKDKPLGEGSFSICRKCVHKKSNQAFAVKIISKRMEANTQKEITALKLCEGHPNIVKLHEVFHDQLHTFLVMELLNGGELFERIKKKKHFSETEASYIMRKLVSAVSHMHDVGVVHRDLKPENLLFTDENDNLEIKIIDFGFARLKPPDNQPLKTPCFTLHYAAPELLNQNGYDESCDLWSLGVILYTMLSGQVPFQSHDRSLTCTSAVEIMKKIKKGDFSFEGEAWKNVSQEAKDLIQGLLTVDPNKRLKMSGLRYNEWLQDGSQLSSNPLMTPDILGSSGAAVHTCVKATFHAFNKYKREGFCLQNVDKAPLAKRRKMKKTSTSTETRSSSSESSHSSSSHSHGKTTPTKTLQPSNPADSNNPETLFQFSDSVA
Experimental: as §1, §2

GRK6 = target: T11, GRK6 (Homo sapiens, UniProt P43250)
T11 construct: purchased Invitrogen
Experimental: as §1, §2

JAK3 = target: T12, JAK3 (Homo sapiens, UniProt P52333)
T12 construct: purchased Invitrogen
T12 sequence (P52333 1-1124): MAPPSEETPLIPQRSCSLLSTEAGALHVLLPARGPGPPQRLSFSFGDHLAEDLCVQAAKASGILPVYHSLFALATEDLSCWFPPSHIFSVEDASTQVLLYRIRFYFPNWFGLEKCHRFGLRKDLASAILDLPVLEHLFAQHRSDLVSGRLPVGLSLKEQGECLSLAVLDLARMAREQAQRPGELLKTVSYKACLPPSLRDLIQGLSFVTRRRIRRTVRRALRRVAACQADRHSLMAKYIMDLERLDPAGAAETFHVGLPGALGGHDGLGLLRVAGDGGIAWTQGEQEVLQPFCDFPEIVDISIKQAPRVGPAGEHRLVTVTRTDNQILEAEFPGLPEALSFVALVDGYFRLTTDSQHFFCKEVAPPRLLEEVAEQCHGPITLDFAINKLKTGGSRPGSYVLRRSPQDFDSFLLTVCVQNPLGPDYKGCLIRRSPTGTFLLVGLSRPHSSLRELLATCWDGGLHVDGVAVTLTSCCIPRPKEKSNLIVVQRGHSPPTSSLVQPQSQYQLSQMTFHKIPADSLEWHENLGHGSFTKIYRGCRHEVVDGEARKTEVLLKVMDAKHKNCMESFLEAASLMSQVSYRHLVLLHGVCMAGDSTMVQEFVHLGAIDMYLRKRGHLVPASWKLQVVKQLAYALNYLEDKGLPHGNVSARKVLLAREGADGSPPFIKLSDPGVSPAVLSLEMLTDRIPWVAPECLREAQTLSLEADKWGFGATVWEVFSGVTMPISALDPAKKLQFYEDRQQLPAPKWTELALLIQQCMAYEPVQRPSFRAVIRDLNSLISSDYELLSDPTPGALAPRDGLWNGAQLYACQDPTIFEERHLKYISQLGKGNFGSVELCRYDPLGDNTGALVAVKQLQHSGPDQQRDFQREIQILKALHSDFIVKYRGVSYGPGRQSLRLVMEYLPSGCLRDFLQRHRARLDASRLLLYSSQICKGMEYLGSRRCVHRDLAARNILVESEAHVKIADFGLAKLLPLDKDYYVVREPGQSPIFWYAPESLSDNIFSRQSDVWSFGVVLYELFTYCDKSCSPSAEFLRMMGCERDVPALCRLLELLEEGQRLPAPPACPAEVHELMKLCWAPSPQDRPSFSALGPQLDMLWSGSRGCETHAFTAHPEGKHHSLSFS
Experimental: as §1, §2

CDK2/cyclin A = target: T13, CDK2/cyclin A (Homo sapiens, UniProt P24941)
T13 construct: purchased Invitrogen
Experimental: as §1, §2

RPS6KA3 (RSK2) = target: T14, RPS6KA3 (RSK2) (Homo sapiens, UniProt P51812)
T14 construct: purchased Invitrogen
T14 sequence (P51812 whole entry): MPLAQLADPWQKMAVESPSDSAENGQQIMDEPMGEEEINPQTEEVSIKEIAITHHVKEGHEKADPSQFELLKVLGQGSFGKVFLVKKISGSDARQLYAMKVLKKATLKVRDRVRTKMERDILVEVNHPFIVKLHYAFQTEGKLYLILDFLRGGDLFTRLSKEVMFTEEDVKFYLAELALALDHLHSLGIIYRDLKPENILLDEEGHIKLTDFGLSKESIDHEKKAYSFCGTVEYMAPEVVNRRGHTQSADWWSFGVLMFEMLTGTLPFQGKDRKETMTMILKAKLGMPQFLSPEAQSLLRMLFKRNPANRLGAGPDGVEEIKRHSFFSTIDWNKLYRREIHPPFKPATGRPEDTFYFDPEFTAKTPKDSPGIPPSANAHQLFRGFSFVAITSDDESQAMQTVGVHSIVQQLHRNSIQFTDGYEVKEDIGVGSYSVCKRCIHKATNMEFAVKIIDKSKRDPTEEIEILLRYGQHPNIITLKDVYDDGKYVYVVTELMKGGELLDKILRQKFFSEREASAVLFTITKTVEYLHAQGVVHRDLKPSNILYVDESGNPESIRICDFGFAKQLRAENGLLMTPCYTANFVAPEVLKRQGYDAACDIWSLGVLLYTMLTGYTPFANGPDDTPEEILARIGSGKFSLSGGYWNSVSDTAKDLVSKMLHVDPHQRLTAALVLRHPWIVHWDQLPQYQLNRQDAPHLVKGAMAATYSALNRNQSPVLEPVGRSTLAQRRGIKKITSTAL
Experimental: as §1, §2

T1 sequence (P23443 whole entry): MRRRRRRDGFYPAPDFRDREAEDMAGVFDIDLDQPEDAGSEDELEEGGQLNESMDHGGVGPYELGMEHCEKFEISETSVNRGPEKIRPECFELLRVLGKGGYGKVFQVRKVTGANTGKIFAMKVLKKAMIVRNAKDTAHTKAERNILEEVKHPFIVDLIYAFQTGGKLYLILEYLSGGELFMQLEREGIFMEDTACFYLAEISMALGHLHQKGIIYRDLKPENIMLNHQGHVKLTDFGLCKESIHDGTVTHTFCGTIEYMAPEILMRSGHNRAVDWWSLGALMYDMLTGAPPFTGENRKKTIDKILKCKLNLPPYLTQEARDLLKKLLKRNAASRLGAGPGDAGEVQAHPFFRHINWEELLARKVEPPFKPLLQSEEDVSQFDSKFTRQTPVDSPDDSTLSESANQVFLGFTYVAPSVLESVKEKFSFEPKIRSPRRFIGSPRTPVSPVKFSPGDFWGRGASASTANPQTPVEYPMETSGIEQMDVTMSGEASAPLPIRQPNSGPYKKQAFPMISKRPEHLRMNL

COc1ccc(OC(=O)n2c(=S)oc3cc(C(C)=O)ccc32)cc1 [Compound 4B]
% Inhibition Point 1 (RPS6KB1 (p70S6K)): 35%
% Inhibition Point 2 (RPS6KB1 (p70S6K)): 44%
% Inhibition mean (RPS6KB1 (p70S6K)): 40%
% Inhibition Point 1 (SRPK1): 0%
% Inhibition Point 2 (SRPK1): 2%
% Inhibition mean (SRPK1): 1%
% Inhibition Point 1 (CSNK1G3 (CK1 gamma 3)): 51%
% Inhibition Point 2 (CSNK1G3 (CK1 gamma 3)): 48%
% Inhibition mean (CSNK1G3 (CK1 gamma 3)): 49%
% Inhibition Point 1 (TYK2): 17%
% Inhibition Point 2 (TYK2): 21%
% Inhibition mean (TYK2): 19%
% Inhibition Point 1 (MAPKAPK2): 90%
% Inhibition Point 2 (MAPKAPK2): 90%
% Inhibition mean (MAPKAPK2): 90%
% Inhibition Point 1 (GSK3B (GSK3 beta)): 92%
% Inhibition Point 2 (GSK3B (GSK3 beta)): 93%
% Inhibition mean (GSK3B (GSK3 beta)): 93%
% Inhibition Point 1 (CAMK4 (CaMKIV)): 52%
% Inhibition Point 2 (CAMK4 (CaMKIV)): 46%
% Inhibition mean (CAMK4 (CaMKIV)): 49%
% Inhibition Point 1 (CAMK2A (CaMKII alpha)): 57%
% Inhibition Point 2 (CAMK2A (CaMKII alpha)): 55%
% Inhibition mean (CAMK2A (CaMKII alpha)): 56%
% Inhibition Point 1 (SYK): 58%
% Inhibition Point 2 (SYK): 54%
% Inhibition mean (SYK): 56%
% Inhibition Point 1 (RPS6KA5 (MSK1)): 49%
% Inhibition Point 2 (RPS6KA5 (MSK1)): 48%
% Inhibition mean (RPS6KA5 (MSK1)): 49%
% Inhibition Point 1 (GRK6): 71%
% Inhibition Point 2 (GRK6): 71%
% Inhibition mean (GRK6): 71%
% Inhibition Point 1 (JAK3): 65%
% Inhibition Point 2 (JAK3): 64%
% Inhibition mean (JAK3): 65%
% Inhibition Point 1 (CDK2/cyclin A): −2%
% Inhibition Point 2 (CDK2/cyclin A): 4%
% Inhibition mean (CDK2/cyclin A): 1%
% Inhibition Point 1 (RPS6KA3 (RSK2)): 58%
% Inhibition Point 2 (RPS6KA3 (RSK2)): 64%
% Inhibition mean (RPS6KA3 (RSK2)): 61%

COc1ccc(OC(=O)n2c(=O)oc3cc(C(C)=O)ccc32)cc1 [Compound 2]
% Inhibition Point 1 (RPS6KB1 (p70S6K)): −138%
% Inhibition Point 2 (RPS6KB1 (p70S6K)): −122%
% Inhibition mean (RPS6KB1 (p70S6K)): −130%
% Inhibition Point 1 (SRPK1): −49%
% Inhibition Point 2 (SRPK1): −38%
% Inhibition mean (SRPK1): −44%
% Inhibition Point 1 (CSNK1G3 (CK1 gamma 3)): 13%
% Inhibition Point 2 (CSNK1G3 (CK1 gamma 3)): 16%
% Inhibition mean (CSNK1G3 (CK1 gamma 3)): 14%
% Inhibition Point 1 (TYK2): −98%
% Inhibition Point 2 (TYK2): −99%
% Inhibition mean (TYK2): −99%
% Inhibition Point 1 (MAPKAPK2): 0%
% Inhibition Point 2 (MAPKAPK2): −10%
% Inhibition mean (MAPKAPK2): −5%
% Inhibition Point 1 (GSK3B (GSK3 beta)): −7%
% Inhibition Point 2 (GSK3B (GSK3 beta)): 0%
% Inhibition mean (GSK3B (GSK3 beta)): −4%
% Inhibition Point 1 (CAMK4 (CaMKIV)): −159%
% Inhibition Point 2 (CAMK4 (CaMKIV)): −201%
% Inhibition mean (CAMK4 (CaMKIV)): −180%
% Inhibition Point 1 (CAMK2A (CaMKII alpha)): −14%
% Inhibition Point 2 (CAMK2A (CaMKII alpha)): −10%
% Inhibition mean (CAMK2A (CaMKII alpha)): −12%
% Inhibition Point 1 (SYK): 4%
% Inhibition Point 2 (SYK): −4%
% Inhibition mean (SYK): 0%
% Inhibition Point 1 (RPS6KA5 (MSK1)): −215%
% Inhibition Point 2 (RPS6KA5 (MSK1)): −231%
% Inhibition mean (RPS6KA5 (MSK1)): −223%
% Inhibition Point 1 (GRK6): 14%
% Inhibition Point 2 (GRK6): 17%
% Inhibition mean (GRK6): 16%
% Inhibition Point 1 (JAK3): −90%
% Inhibition Point 2 (JAK3): −83%
% Inhibition mean (JAK3): −86%
% Inhibition Point 1 (CDK2/cyclin A): −297%
% Inhibition Point 2 (CDK2/cyclin A): −301%
% Inhibition mean (CDK2/cyclin A): −299%
% Inhibition Point 1 (RPS6KA3 (RSK2)): −200%
% Inhibition Point 2 (RPS6KA3 (RSK2)): −212%
% Inhibition mean (RPS6KA3 (RSK2)): −206%

COc1ccc(OC(=S)n2c(=O)oc3cc(C(C)=O)ccc32)cc1 [Compound 4A]
% Inhibition Point 1 (RPS6KB1 (p70S6K)): 19%
% Inhibition Point 2 (RPS6KB1 (p70S6K)): 22%
% Inhibition mean (RPS6KB1 (p70S6K)): 21%
% Inhibition Point 1 (SRPK1): −6%
% Inhibition Point 2 (SRPK1): 2%
% Inhibition mean (SRPK1): −2%
% Inhibition Point 1 (CSNK1G3 (CK1 gamma 3)): 30%
% Inhibition Point 2 (CSNK1G3 (CK1 gamma 3)): 31%
% Inhibition mean (CSNK1G3 (CK1 gamma 3)): 31%
% Inhibition Point 1 (TYK2): 7%
% Inhibition Point 2 (TYK2): 11%
% Inhibition mean (TYK2): 9%
% Inhibition Point 1 (MAPKAPK2): 48%
% Inhibition Point 2 (MAPKAPK2): 53%
% Inhibition mean (MAPKAPK2): 51%
% Inhibition Point 1 (GSK3B (GSK3 beta)): 61%
% Inhibition Point 2 (GSK3B (GSK3 beta)): 60%
% Inhibition mean (GSK3B (GSK3 beta)): 60%
% Inhibition Point 1 (CAMK4 (CaMKIV)): 18%
% Inhibition Point 2 (CAMK4 (CaMKIV)): 24%
% Inhibition mean (CAMK4 (CaMKIV)): 21%
% Inhibition Point 1 (CAMK2A (CaMKII alpha)): 20%
% Inhibition Point 2 (CAMK2A (CaMKII alpha)): 24%
% Inhibition mean (CAMK2A (CaMKII alpha)): 22%
% Inhibition Point 1 (SYK): 21%
% Inhibition Point 2 (SYK): 24%
% Inhibition mean (SYK): 23%
% Inhibition Point 1 (RPS6KA5 (MSK1)): 35%
% Inhibition Point 2 (RPS6KA5 (MSK1)): 32%
% Inhibition mean (RPS6KA5 (MSK1)): 33%
% Inhibition Point 1 (GRK6): 42%
% Inhibition Point 2 (GRK6): 43%
% Inhibition mean (GRK6): 42%
% Inhibition Point 1 (JAK3): 41%
% Inhibition Point 2 (JAK3): 30%
% Inhibition mean (JAK3): 36%
% Inhibition Point 1 (CDK2/cyclin A): 9%
% Inhibition Point 2 (CDK2/cyclin A): 9%
% Inhibition mean (CDK2/cyclin A): 9%
% Inhibition Point 1 (RPS6KA3 (RSK2)): 55%
% Inhibition Point 2 (RPS6KA3 (RSK2)): 56%
% Inhibition mean (RPS6KA3 (RSK2)): 55%
